Laboratory results published in ChEMBL document CHEMBL3244164, “Synthesis and analgesic activity of 1,3-dihydro-3-(substituted phenyl)imidazo[4,5-b]pyridin-2-ones and 3-(substituted phenyl)-1,2,3-triazolo[4,5-b]pyridines” (J Med Chem, 1978).
Active and inactive are the calls of the source.

What was measured:
[1] = test system: Rattus norvegicus; test: Analgesic activity in Sprague-Dawley rat brewer's yeast treated foot assessed as response threshold at 16 to 32 mg/kg, po; format: functional; settings: dose mg/kg 16-32
[2] = test system: Rattus norvegicus; test: Analgesic activity in Sprague-Dawley rat normal foot assessed as response threshold at 32 mg/kg, po; format: functional
[3] = test system: Rattus norvegicus; test: Analgesic activity in Sprague-Dawley rat brewer's yeast treated foot assessed as response threshold at 8 mg/kg, po; format: functional
[4] = test system: Rattus norvegicus; test: Analgesic activity in Sprague-Dawley rat normal foot assessed as response threshold at 8 to 16 mg/kg, po; format: functional; settings: dose mg/kg 8-16
[5] = test system: Rattus norvegicus; test: Analgesic activity in Sprague-Dawley rat brewer's yeast treated foot assessed as response threshold at 8 to 16 mg/kg, po; format: functional; settings: dose mg/kg 8-16
[6] = test system: Rattus norvegicus; test: Analgesic activity in Sprague-Dawley rat normal foot assessed as response threshold at 16 to 32 mg/kg, po; format: functional; settings: dose mg/kg 16-32
[7] = test system: Mus musculus; test: Analgesic activity in mouse assessed as withdrawal latency at 12.5 to 75 mg/kg, po by Haffner tail clamp method; format: functional, organism-based
[8] = test system: Mus musculus; test: Analgesic activity in naloxone treated mouse assessed as withdrawal latency at 12.5 to 75 mg/kg, po; format: functional, organism-based
[9] = test system: Rattus norvegicus; test: Antiinflammatory activity in Sprague-Dawley rat assessed as inhibition of carrageenan-induced paw edema at 30 mg/kg, po; format: functional
[10] = test system: Rattus norvegicus; test: Antiarthritic activity in Lewis rat assessed as inhibition of adjuvant-induced paw swelling at 50 mg/kg, po qd for 13 days measured on day 14; format: functional
[11] = test system: Rattus norvegicus; test: Analgesic activity in Sprague-Dawley rat assessed as increase in mean reaction time at 5 mg/kg, po after 3 hrs relative to control; format: functional
[12] = test system: Rattus norvegicus; test: Analgesic activity in Sprague-Dawley rat assessed as increase in mean reaction time at 20 mg/kg, po after 4 hrs relative to control; format: functional
[13] = test system: Rattus norvegicus; test: Analgesic activity in Sprague-Dawley rat assessed as increase in mean reaction time at 10 mg/kg, po after 1 hr relative to control; format: functional
[14] = test system: Rattus norvegicus; test: Analgesic activity in Sprague-Dawley rat assessed as increase in mean reaction time at 5 mg/kg, po after 4 hrs relative to control; format: functional
[15] = test system: Rattus norvegicus; test: Analgesic activity in Sprague-Dawley rat assessed as increase in mean reaction time at 10 mg/kg, po after 5 hrs relative to control; format: functional
[16] = test system: Rattus norvegicus; test: Analgesic activity in Sprague-Dawley rat assessed as increase in mean reaction time at 20 mg/kg, po after 2 hrs relative to control; format: functional
[17] = test system: Rattus norvegicus; test: Analgesic activity in Sprague-Dawley rat assessed as increase in mean reaction time at 10 mg/kg, po after 2 hrs relative to control; format: functional
[18] = test system: Rattus norvegicus; test: Analgesic activity in Sprague-Dawley rat assessed as increase in mean reaction time at 20 mg/kg, po after 3 hrs relative to control; format: functional
[19] = test system: Rattus norvegicus; test: Analgesic activity in Sprague-Dawley rat assessed as increase in mean reaction time at 20 mg/kg, po after 1 hr relative to control; format: functional
[20] = test system: Rattus norvegicus; test: Analgesic activity in Sprague-Dawley rat assessed as increase in mean reaction time at 5 mg/kg, po after 1 hr relative to control; format: functional
[21] = test system: Rattus norvegicus; test: Analgesic activity in Sprague-Dawley rat assessed as increase in mean reaction time at 5 mg/kg, po after 2 hrs relative to control; format: functional
[22] = test system: Rattus norvegicus; test: Analgesic activity in Sprague-Dawley rat assessed as increase in mean reaction time at 10 mg/kg, po after 3 hrs relative to control; format: functional
[23] = test system: Rattus norvegicus; test: Analgesic activity in Sprague-Dawley rat assessed as increase in mean reaction time at 10 mg/kg, po after 4 hrs relative to control; format: functional
[24] = test system: Rattus norvegicus; test: Analgesic activity in Sprague-Dawley rat assessed as increase in mean reaction time at 5 mg/kg, po after 5 hrs relative to control; format: functional
[25] = test system: Rattus norvegicus; test: Analgesic activity in Sprague-Dawley rat assessed as increase in mean reaction time at 20 mg/kg, po after 5 hrs relative to control; format: functional
[26] = test system: Rattus norvegicus; test: Analgesic activity in Sprague-Dawley rat brewer's yeast treated foot assessed as response threshold at 32 mg/kg, po; format: functional

Which results are given for `O=c1n(CO)c2cccnc2n1-c1ccc2c(c1)OCO2`?
Activity [1]: >25 mm; Activity [2]: 40 mm

For `CC(C)n1c(=O)n(-c2ccc3c(c2)OCO3)c2ncccc21`, which Activity [3] is on record?
Its Activity is >34 mm.

And the Activity [4]?
The Activity was >50 mm.

How did the Activity [3] turn out when `CN1CC[C@]23c4c5ccc(O)c4O[C@H]2[C@@H](O)C=C[C@H]3[C@H]1C5` [MORPHINE] was run?
Its Activity is >34 mm.

What about the Activity [4] of the same compound?
The Activity was >50 mm.

What about the Activity [2] of the same compound?
The Activity was <40 mm.

With `O=c1n(-c2ccc3c(c2)OCO3)c2ncccc2n1C1CCCC1` as the compound, how does the Activity [5] read?
Its Activity is >25 mm.

And the Activity [6]?
Its Activity is >40 mm.

What does the source list for `C=C(Cl)Cn1c(=O)n(-c2ccc3c(c2)OCO3)c2ncccc21`?
Activity [6]: >40 mm; Activity [1]: >25 mm

Which Activity [1] does the source give for `CC(C)Cn1c(=O)n(-c2ccc3c(c2)OCO3)c2ncccc21` here?
Its Activity is >25 mm.

What about the Activity [2] of the same compound?
The Activity was <40 mm.

Which Activity [1] does the source give for `Cc1ccc(-n2c(=O)[nH]c3cccnc32)c(C)c1` here?
The Activity was >25 mm.

What about the Activity [2] of the same compound?
Its Activity is <40 mm.

For `CC(C)(C)n1c(=O)n(-c2ccc3c(c2)OCO3)c2ncccc21`, which Activity [6] is on record?
Its Activity is >40 mm.

What about the Activity [1] of the same compound?
Its Activity is >25 mm.

What does the source list for `C=CCn1c(=O)n(-c2ccc3c(c2)OCO3)c2ncccc21`?
Activity [7]: Active; Activity [8]: inactive

How did the Activity [1] turn out when `Nc1ccc(-n2c(=O)[nH]c3cccnc32)cc1` was run?
Its Activity is >25 mm.

What about the Activity [2] of the same compound?
The Activity was <40 mm.

Which Activity [5] does the source give for `O=c1n(CCO)c2cccnc2n1-c1ccc2c(c1)OCO2` here?
The Activity was >25 mm.

What about the Activity [6] of the same compound?
Its Activity is >40 mm.

`O=c1[nH]c2cccnc2n1-c1ccccc1Cl` was tested. Which Activity [1] did it give?
The Activity was >25 mm.

And the Activity [2]?
The Activity was <40 mm.

Which results are given for `Cn1c(=O)n(-c2ccc3c(c2)OCO3)c2ncccc21`?
Activity [1]: >25 mm; Activity [4]: >50 mm

How did the inhibition in vivo at 30 mg/kg [9] turn out when `CCCCC1C(=O)N(c2ccccc2)N(c2ccccc2)C1=O` [PHENYLBUTAZONE] was run?
The inhibition in vivo at 30 mg/kg was 39%.

What about the inhibition in vivo at 50 mg/kg [10] of the same compound?
The inhibition in vivo at 50 mg/kg was 78%.

Which results are given for `O=c1[nH]c2cccnc2n1-c1ccc2c(c1)OCO2`?
Time [11]: -0.1 s; Time [12]: 20 s; Time [13]: 2 s; Activity [7]: Active; Time [14]: 1.3 s; Activity [3]: >34 mm; Activity [8]: inactive; Time [15]: -0.2 s; Activity [4]: >50 mm; inhibition in vivo at 30 mg/kg [9]: 37%; Time [16]: 15 s; Time [17]: 3.9 s; Time [18]: 20.4 s; Time [19]: 6 s; Time [20]: 1.5 s; Time [21]: 2.1 s; Time [22]: 2.8 s; inhibition in vivo at 50 mg/kg [10]: 68.3%; Time [23]: 2.3 s; Time [24]: 0.4 s; Time [25]: 18.3 s

For `Fc1ccc(F)c(-n2nnc3cccnc32)c1`, which Activity [1] is on record?
Its Activity is >25 mm.

What about the Activity [2] of the same compound?
The Activity was <40 mm.

How did the Activity [5] turn out when `CCCn1c(=O)n(-c2ccc3c(c2)OCO3)c2ncccc21` was run?
Its Activity is >25 mm.

What about the Activity [4] of the same compound?
The Activity was >50 mm.

For `O=c1[nH]c2cccnc2n1-c1ccccc1`, which Activity [5] is on record?
Its Activity is >25 mm.

What about the Activity [2] of the same compound?
The Activity was 40 mm.

What does the source list for `CC(O)Cn1c(=O)n(-c2ccc3c(c2)OCO3)c2ncccc21` (stereo unspecified)?
Activity [1]: >25 mm; Activity [2]: 40 mm

Which results are given for `Fc1ccc(-n2nnc3cccnc32)c(F)c1`?
Activity [5]: >25 mm; Activity [6]: >40 mm

`COc1ccc2c3c1O[C@H]1[C@@H](O)C=C[C@H]4[C@@H](C2)N(C)CC[C@@]341` [CODEINE] was tested. Which Activity [5] did it give?
Its Activity is >25 mm.

And the Activity [6]?
Its Activity is >40 mm.

What does the source list for `CC(C)(C)Oc1nc2cccnc2n1-c1ccc2c(c1)OCO2`?
Activity [5]: >25 mm; Activity [2]: <40 mm

What does the source list for `CCn1c(=O)n(-c2ccc3c(c2)OCO3)c2ncccc21`?
Activity [1]: >25 mm; Activity [2]: <40 mm

`c1cnc2c(c1)nnn2-c1ccc2c(c1)OCCO2` was tested. Which Activity [1] did it give?
Its Activity is >25 mm.

And the Activity [2]?
The Activity was <40 mm.

Which Activity [6] does the source give for `Cc1ccc(-n2c(=O)[nH]c3cccnc32)cc1` here?
The Activity was >40 mm.

What about the Activity [1] of the same compound?
The Activity was >25 mm.

What does the source list for `O=c1n(CC2CC2)c2cccnc2n1-c1ccc2c(c1)OCO2`?
Activity [6]: >40 mm; Activity [1]: >25 mm

`CCCn1c(=O)n(-c2ccccc2)c2ncccc21` was tested. Which Activity [1] did it give?
Its Activity is >25 mm.

And the Activity [2]?
Its Activity is 40 mm.

Which results are given for `Cc1cc2c(cc1-n1nnc3cccnc31)OCO2`?
Activity [2]: <40 mm; Activity [26]: <25 mm

`Fc1ccccc1-n1nnc2cccnc21` was tested. Which Activity [5] did it give?
Its Activity is >25 mm.

And the Activity [2]?
Its Activity is <40 mm.

Which results are given for `CN(C)c1ccccc1-n1nnc2cccnc21`?
Activity [2]: <40 mm; Activity [26]: <25 mm

Which Activity [2] does the source give for `CCOC(=O)Cn1c(=O)n(-c2ccc3c(c2)OCO3)c2ncccc21` here?
Its Activity is <40 mm.

And the Activity [26]?
The Activity was <25 mm.

What does the source list for `O=c1n(C2=NCCS2)c2cccnc2n1-c1ccc2c(c1)OCO2`?
Activity [2]: <40 mm; Activity [26]: <25 mm

With `C=CCn1c(=O)n(-c2cccc(Cl)c2C)c2ncccc21` as the compound, how does the Activity [2] read?
The Activity was <40 mm.

What about the Activity [26] of the same compound?
The Activity was <25 mm.

What does the source list for `O=c1[nH]c2cccnc2n1-c1ccc2c(c1)COC2`?
Activity [2]: <40 mm; Activity [26]: <25 mm

Which results are given for `O=C(O)c1cnc2c(c1)[nH]c(=O)n2-c1ccc2c(c1)OCO2`?
Activity [2]: <40 mm; Activity [26]: <25 mm

`C=C=Cn1c(=O)n(-c2ccc3c(c2)OCO3)c2ncccc21` was tested. Which Activity [2] did it give?
Its Activity is <40 mm.

And the Activity [26]?
Its Activity is <25 mm.

How did the Activity [2] turn out when `CN(C)c1ccccc1-n1c(=O)[nH]c2cccnc21` was run?
The Activity was <40 mm.

What about the Activity [26] of the same compound?
Its Activity is <25 mm.

How did the Activity [2] turn out when `CCOCn1c(=O)n(-c2ccc3c(c2)OCO3)c2ncccc21` was run?
The Activity was <40 mm.

And the Activity [26]?
Its Activity is <25 mm.
